Laboratory results reported in the supplement of paper PMC10307832.

Key:
Experiment in all cases: relative viability (nuclei count vs DMSO), 5 days (fraction); higher = more cells survive
Vandetanib + Pemetrexed = compound: COc1cc2/c(=N/c3ccc(Br)cc3F)nc[nH]c2cc1OCC1CCN(C)CC1 [Vandetanib] + Nc1nc2[nH]cc(CCc3ccc(C(=O)N[C@@H](CCC(=O)O)C(=O)O)cc3)c2c(=O)[nH]1 [Pemetrexed] (partner 0.2 µM)
Method in brief: (§1)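 Cells from lung cancer lines were seeded into 1536-well plates and, one day later, dosed by pin tool. Treatments were either a single drug or a fixed dose of an anchor drug with five library-drug doses (not always all listed) in √10 steps. After 5 days, nuclei were stained in a one-step fixation (final 0.05% Triton X-100, 1% formaldehyde, 1 ug/ml Hoechst) and counted on 4× images, and relative viability is the treated-to-vehicle nuclei ratio, as the median of duplicate plates.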

CUDC-101 + Palbociclib = compound: C#Cc1cccc(Nc2ncnc3cc(OC)c(OCCCCCCC(=O)NO)cc23)c1 [CUDC-101] + CC(=O)c1c(C)c2cnc(Nc3ccc(N4CCNCC4)cn3)nc2n(C2CCCC2)c1=O [Palbociclib] (partner 0.5 µM)
Method in brief: as §1

[1] = compound: C1=CC=C2C(=C1)N=C(S2)C(C#N)C3=NC(=NC=C3)NCCC4=CN=CC=C4 + O=C(c1cc(Cc2n[nH]c(=O)c3ccccc23)ccc1F)N1CCN(C(=O)C2CC2)CC1 [Olaparib] (partner 8 µM)
Method in brief: as §1

CUDC-101 + Vorinostat = compound: C#Cc1cccc(Nc2ncnc3cc(OC)c(OCCCCCCC(=O)NO)cc23)c1 [CUDC-101] + O=C(CCCCCCC(=O)Nc1ccccc1)NO [Vorinostat] (partner 1 µM)
Method in brief: as §1

UMC-11
relative viability (Vandetanib + Pemetrexed; first compound 0.02 µM): 0.764 | relative viability (Vandetanib + Pemetrexed; first compound 0.06325 µM): 0.799 | relative viability (Vandetanib + Pemetrexed; first compound 0.2 µM): 0.801 | relative viability (Vandetanib + Pemetrexed; first compound 0.6325 µM): 0.721 | relative viability (Vandetanib + Pemetrexed; first compound 2 µM): 0.667 | relative viability (CUDC-101 + Palbociclib; first compound 0.01 µM): 0.346 | relative viability (CUDC-101 + Palbociclib; first compound 0.03162 µM): 0.375 | relative viability (CUDC-101 + Palbociclib; first compound 0.1 µM): 0.323 | relative viability (CUDC-101 + Palbociclib; first compound 0.3162 µM): 0.277 | relative viability (CUDC-101 + Palbociclib; first compound 1 µM): 0.228 | relative viability ([1]; first compound 0.01581 µM): 0.344 | relative viability ([1]; first compound 0.05 µM): 0.349 | relative viability ([1]; first compound 0.1581 µM): 0.366 | relative viability ([1]; first compound 0.5 µM): 0.382 | relative viability (CUDC-101 + Vorinostat; first compound 0.01 µM): 0.359 | relative viability (CUDC-101 + Vorinostat; first compound 0.03162 µM): 0.317 | relative viability (CUDC-101 + Vorinostat; first compound 0.1 µM): 0.32 | relative viability (CUDC-101 + Vorinostat; first compound 0.3162 µM): 0.129 | relative viability (CUDC-101 + Vorinostat; first compound 1 µM): 0.0877
